Laboratory results from ChEMBL document CHEMBL5247659, “Design, Structure-Activity Relationships, and In Vivo Evaluation of Potent and Brain-Penetrant Imidazo[1,2-b]pyridazines as Glycogen Synthase Kinase-3β (GSK-3β) Inhibitors” (J Med Chem, 2023).
pIC50: −log10 of the molar value. Values after ≈ are worked out from the molar mass of the structure shown.

Legend:
[1] = target: AP2-associated protein kinase 1 (Homo sapiens, UniProt Q2M2I8); test: Inhibition of AAK1 (unknown origin)
[2] = Permeability of compound at pH 7.4 incubated for 4 hrs by PAMPA assay; assay type: ADME; details: read-out: permeability
[3] = Aqueous solubility of compound in potassium phosphate buffer at pH 7.4 at 1 mg/ml measured after 18 to 24 hrs by HPLC-UV based analysis; assay type: physicochemical; details: time 18-24 hrs
[4] = target: Tyrosine-protein kinase SYK (Homo sapiens, UniProt P43405); test: Inhibition of SYK (unknown origin)
[5] = Plasma protein binding in mouse assessed as unbound fraction at 10 uM measured for 5 hrs by equilibrium dialysis based LC-MS/MS analysis; assay type: ADME, cell-free
[6] = Solubility of compound in fed state simulated intestinal fluid of pH 5 at 1 mg/ml measured after 18 to 24 hrs by HPLC-UV based analysis; assay type: ADME; details: time 18-24 hrs
[7] = target: Tyrosine-protein kinase BTK (Homo sapiens, UniProt Q06187); test: Inhibition of BTK (unknown origin)
[8] = target: Tyrosine-protein kinase Lck (Homo sapiens, UniProt P06239); test: Inhibition of LCK (unknown origin)
[9] = target: Cyclin-dependent kinase 2 (Homo sapiens, UniProt P24941); test: Inhibition of CDK2 (unknown origin)
[10] = target: MAP kinase-activated protein kinase 2 (Homo sapiens, UniProt P49137); test: Inhibition of MK2 (unknown origin)
[11] = target: Non-receptor tyrosine-protein kinase TYK2 (Homo sapiens, UniProt P29597); test: Inhibition of TYK2 (unknown origin)
[12] = Volume of distribution at steady state in 8 hr fasted C57BL6 mouse at 2 mg/kg, iv; assay type: ADME, organism-based; details: in vivo, read-out: Vdss
[13] = Unbound brain-to-plasma concentration ratio in triple transgenic C57BL6 alzheimer disease mouse model at 30 mg/kg, po measured after 5 hrs; assay type: ADME, organism-based; details: read-out: K(p,uu,brain)
[14] = Oral bioavailability in 8 hr fasted C57BL6 mouse at 10 mg/kg; assay type: ADME, organism-based; details: in vivo
[15] = target: Glycogen synthase kinase-3 alpha (Homo sapiens, UniProt P49840); test: Inhibition of full length GST-tagged human recombinant GSK3-alpha using FL-KRREILSRRP[ps]ERYR-NH2 as substrate incubated for 20 hrs
[16] = target: Mitogen-activated protein kinase 14 (Homo sapiens, UniProt Q16539); test: Inhibition of p38alpha (unknown origin)
[17] = target: Tyrosine-protein kinase TXK (Homo sapiens, UniProt P42681); test: Inhibition of TXK (unknown origin)
[18] = target: Cytoplasmic tyrosine-protein kinase BMX (Homo sapiens, UniProt P51813); test: Inhibition of BMX (unknown origin)
[19] = Clearance in 8 hr fasted C57BL6 mouse at 2 mg/kg, iv; assay type: ADME, organism-based; details: in vivo
[20] = target: Interleukin-1 receptor-associated kinase 4 (Homo sapiens, UniProt Q9NWZ3); test: Inhibition of IRAK4 (unknown origin)
[21] = test system: Mus musculus; test: Antialzheimer activity against triple transgenic C57BL6 mouse model assessed as reduction in tau phosphorylation at S396 at 30 mg/kg, po measured 5 hrs post dose by ELISA relative to control; assay type: functional; set-up: scale not given: the % may be the effect or the level left
[22] = AUC tot in 8 hr fasted C57BL6 mouse at 10 mg/kg, po; assay type: ADME, organism-based; set-up: dose 10 mg/kg, route po; details: in vivo
[23] = target: Aurora kinase B (Homo sapiens, UniProt Q96GD4); test: Inhibition of Aurora B (unknown origin)
[24] = Cmax in 8 hr fasted C57BL6 mouse at 10 mg/kg, po; assay type: ADME, organism-based; set-up: dose 10 mg/kg, route po; details: in vivo
[25] = Drug exposure in triple transgenic C57BL6 alzheimer disease mouse brain at 30 mg/kg, po measured after 5 hrs; assay type: ADME, organism-based; details: read-out: Ct
[26] = Aqueous solubility of compound in potassium phosphate buffer at pH 1 at 1 mg/ml measured after 18 to 24 hrs by HPLC-UV based analysis; assay type: physicochemical; details: time 18-24 hrs
[27] = target: Casein kinase II subunit alpha (Homo sapiens, UniProt P68400); test: Inhibition of CK2A1 (unknown origin)
[28] = Drug exposure in triple transgenic C57BL6 alzheimer disease mouse plasma at 30 mg/kg, po measured after 5 hrs; assay type: ADME, organism-based
[29] = Ratio of drug level in brain to plasma of triple transgenic C57BL6 alzheimer disease mouse at 30 mg/kg, po measured after 5 hrs; assay type: ADME, organism-based; details: read-out: BPR
[30] = target: Interleukin-1 receptor-associated kinase 1 (Homo sapiens, UniProt P51617); test: Inhibition of IRAK1 (unknown origin)
[31] = Permeability of compound at pH 5.5 incubated for 4 hrs by PAMPA assay; assay type: ADME; details: read-out: permeability
[32] = Inhibition of N-terminal 6-His tagged human recombinant GSK3-beta H355L mutant using FL-KRREILSRRP[ps]ERYR-NH2 as substrate incubated for 20 hrs
[33] = target: Mast/stem cell growth factor receptor Kit (Homo sapiens, UniProt P10721); test: Inhibition of cKIT (unknown origin)
[34] = Unbound fraction in triple transgenic C57BL6 alzheimer disease model mouse brain homogenate at 30 mg/kg, po measured after 5 hrs; assay type: ADME, organism-based
[35] = target: Cyclin-dependent kinase 5 (Homo sapiens, UniProt Q00535); test: Inhibition of CDK5 (unknown origin)
[36] = target: Insulin-like growth factor 1 receptor (Homo sapiens, UniProt P08069); test: Inhibition of IGF1R (unknown origin)
[37] = Metabolic stability in mouse liver microsomes assessed as parent compound remaining at 0.5 uM incubated for 10 mins by LC-MS/MS analysis; assay type: ADME, Microsome; details: read-out: Stability
[38] = target: Tyrosine-protein kinase ITK/TSK (Homo sapiens, UniProt Q08881); test: Inhibition of ITK (unknown origin)
[39] = target: Platelet-derived growth factor receptor beta (Homo sapiens, UniProt P09619); test: Inhibition of PDGFRbeta (unknown origin)
[40] = Permeability across basolateral to apical side in human Caco-2 cells at 3 uM incubated for 2 hrs by LC-MS/MS analysis; assay type: ADME, cell-based; details: read-out: permeability
[41] = target: Casein kinase II subunit alpha' (Homo sapiens, UniProt P19784); test: Inhibition of CK2A2 (unknown origin)
[42] = target: Protein kinase C theta type (Homo sapiens, UniProt Q04759); test: Inhibition of PKCtheta (unknown origin)
[43] = target: Tyrosine-protein kinase JAK1 (Homo sapiens, UniProt P23458); test: Inhibition of JAK1 (unknown origin)
[44] = Inhibition of tau 4R1N phosphorylation (unknown origin) at S396 residue transfected in human U2OS cells coexpressing GFP-tagged beta catenin incubated overnight by high content imaging assay
[45] = target: Serine/threonine-protein kinase pim-1 (Homo sapiens, UniProt P11309); test: Inhibition of PIM1 (unknown origin)
[46] = target: Aurora kinase A (Mus musculus, UniProt P97477); test: Inhibition of mouse AURA
[47] = target: P-glycoprotein (ABCB1) (Homo sapiens, UniProt P08183); test: Substrate activity at P-glycoprotein in human Caco-2 cells assessed as efflux ratio of permeability across basolateral to apical side over apical to basolateral side at 3 uM incubated for 2 hrs by LC-MS/MS analysis; assay type: ADME, cell-based
[48] = Plasma protein binding in human assessed as unbound fraction at 10 uM measured for 5 hrs by equilibrium dialysis based LC-MS/MS analysis; assay type: ADME, cell-free
[49] = target: Tyrosine-protein kinase JAK2 (Homo sapiens, UniProt O60674); test: Inhibition of JAK2 (unknown origin)
[50] = Half life in 8 hr fasted C57BL6 mouse at 2 mg/kg, iv; assay type: ADME, organism-based; details: in vivo
[51] = MRT in 8 hr fasted C57BL6 mouse at 2 mg/kg, iv; assay type: ADME, organism-based; details: in vivo
[52] = Metabolic stability in human liver microsomes assessed as parent compound remaining at 0.5 uM incubated for 10 mins by LC-MS/MS analysis; assay type: ADME, Microsome; details: read-out: Stability
[53] = Permeability across apical to basolateral side in human Caco-2 cells at 3 uM incubated for 2 hrs by LC-MS/MS analysis; assay type: ADME, cell-based; details: read-out: permeability
[54] = target: Tyrosine-protein kinase Lyn (Homo sapiens, UniProt P07948); test: Inhibition of LynA (unknown origin)
[55] = target: Ribosomal protein S6 kinase alpha-1 (Homo sapiens, UniProt Q15418); test: Inhibition of RSK1 (unknown origin)
[56] = Solubility of compound in fasted state simulated intestinal fluid of pH 6.5 at 1 mg/ml measured after 18 to 24 hrs by HPLC-UV based analysis; assay type: ADME; details: time 18-24 hrs

Sequence of Aurora kinase B (Q96GD4 whole entry): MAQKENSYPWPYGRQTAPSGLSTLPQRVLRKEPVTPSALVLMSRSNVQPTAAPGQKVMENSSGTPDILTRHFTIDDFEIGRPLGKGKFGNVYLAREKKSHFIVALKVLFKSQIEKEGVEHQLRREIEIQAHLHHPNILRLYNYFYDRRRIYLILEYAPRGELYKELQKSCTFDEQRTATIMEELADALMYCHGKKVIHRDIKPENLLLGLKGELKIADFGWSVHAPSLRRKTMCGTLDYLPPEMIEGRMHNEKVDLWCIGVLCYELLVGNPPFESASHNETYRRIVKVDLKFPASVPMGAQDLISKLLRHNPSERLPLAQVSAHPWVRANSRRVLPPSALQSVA
Sequence of Protein kinase C theta type (Q04759 whole entry): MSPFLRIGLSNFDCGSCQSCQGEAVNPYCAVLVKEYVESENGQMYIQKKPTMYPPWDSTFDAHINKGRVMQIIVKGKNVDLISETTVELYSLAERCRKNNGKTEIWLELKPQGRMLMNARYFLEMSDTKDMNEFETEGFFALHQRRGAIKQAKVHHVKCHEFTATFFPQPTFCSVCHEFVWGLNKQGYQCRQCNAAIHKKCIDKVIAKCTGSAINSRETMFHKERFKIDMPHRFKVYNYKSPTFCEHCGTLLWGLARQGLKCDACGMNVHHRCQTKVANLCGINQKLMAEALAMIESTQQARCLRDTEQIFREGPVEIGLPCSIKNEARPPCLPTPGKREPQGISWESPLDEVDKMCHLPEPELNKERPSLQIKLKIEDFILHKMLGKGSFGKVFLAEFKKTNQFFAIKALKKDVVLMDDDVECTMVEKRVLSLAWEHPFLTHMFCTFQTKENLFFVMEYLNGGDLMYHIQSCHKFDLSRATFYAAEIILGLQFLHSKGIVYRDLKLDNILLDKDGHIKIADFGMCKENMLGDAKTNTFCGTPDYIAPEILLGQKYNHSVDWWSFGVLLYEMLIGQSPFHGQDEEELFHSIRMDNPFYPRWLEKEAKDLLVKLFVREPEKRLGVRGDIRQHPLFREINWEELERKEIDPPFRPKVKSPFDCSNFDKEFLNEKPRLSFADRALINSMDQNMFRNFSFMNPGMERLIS
Sequence of Platelet-derived growth factor receptor beta (P09619 whole entry): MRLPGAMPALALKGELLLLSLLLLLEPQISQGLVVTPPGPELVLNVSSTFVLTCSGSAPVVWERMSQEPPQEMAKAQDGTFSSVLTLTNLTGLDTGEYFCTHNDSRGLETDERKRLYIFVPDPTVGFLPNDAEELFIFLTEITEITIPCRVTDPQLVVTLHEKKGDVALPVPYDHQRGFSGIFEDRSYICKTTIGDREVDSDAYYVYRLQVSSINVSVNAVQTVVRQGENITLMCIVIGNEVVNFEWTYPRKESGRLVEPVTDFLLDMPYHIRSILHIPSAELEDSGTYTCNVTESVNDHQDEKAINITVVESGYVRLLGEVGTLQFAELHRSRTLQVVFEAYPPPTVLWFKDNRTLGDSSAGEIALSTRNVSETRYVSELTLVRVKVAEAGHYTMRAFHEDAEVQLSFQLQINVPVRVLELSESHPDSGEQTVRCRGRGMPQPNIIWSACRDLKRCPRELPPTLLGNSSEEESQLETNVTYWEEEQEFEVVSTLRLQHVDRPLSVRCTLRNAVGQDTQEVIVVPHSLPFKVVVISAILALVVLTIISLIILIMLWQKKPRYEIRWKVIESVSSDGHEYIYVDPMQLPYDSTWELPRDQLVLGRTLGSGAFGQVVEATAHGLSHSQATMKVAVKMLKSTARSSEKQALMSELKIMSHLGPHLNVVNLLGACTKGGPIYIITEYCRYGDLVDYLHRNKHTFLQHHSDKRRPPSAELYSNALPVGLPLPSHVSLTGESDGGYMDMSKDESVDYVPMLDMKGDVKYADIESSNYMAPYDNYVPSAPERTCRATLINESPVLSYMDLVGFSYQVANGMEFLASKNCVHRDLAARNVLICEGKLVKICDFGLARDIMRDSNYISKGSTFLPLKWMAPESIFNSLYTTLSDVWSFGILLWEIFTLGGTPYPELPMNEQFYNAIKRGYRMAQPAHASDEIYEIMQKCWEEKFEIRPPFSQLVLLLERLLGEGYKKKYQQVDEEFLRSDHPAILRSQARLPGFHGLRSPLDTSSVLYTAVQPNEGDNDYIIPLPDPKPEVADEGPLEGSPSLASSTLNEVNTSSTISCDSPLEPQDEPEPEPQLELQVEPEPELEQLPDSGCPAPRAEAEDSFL
Sequence of Tyrosine-protein kinase Lyn (P07948 whole entry): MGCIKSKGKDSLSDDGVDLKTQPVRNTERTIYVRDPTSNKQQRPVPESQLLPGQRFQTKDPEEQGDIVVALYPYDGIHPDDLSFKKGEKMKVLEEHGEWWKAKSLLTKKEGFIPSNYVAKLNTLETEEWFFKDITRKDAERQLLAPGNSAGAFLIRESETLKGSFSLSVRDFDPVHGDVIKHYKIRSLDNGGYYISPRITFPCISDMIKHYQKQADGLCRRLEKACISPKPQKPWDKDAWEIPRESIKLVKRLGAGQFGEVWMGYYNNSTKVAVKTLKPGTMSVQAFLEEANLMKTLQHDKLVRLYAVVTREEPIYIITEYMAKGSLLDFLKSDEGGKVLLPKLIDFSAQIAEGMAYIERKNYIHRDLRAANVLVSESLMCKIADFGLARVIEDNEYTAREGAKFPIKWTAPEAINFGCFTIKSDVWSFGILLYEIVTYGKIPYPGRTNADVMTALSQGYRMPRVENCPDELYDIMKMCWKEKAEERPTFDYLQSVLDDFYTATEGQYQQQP
Sequence of Tyrosine-protein kinase JAK2 (O60674 whole entry): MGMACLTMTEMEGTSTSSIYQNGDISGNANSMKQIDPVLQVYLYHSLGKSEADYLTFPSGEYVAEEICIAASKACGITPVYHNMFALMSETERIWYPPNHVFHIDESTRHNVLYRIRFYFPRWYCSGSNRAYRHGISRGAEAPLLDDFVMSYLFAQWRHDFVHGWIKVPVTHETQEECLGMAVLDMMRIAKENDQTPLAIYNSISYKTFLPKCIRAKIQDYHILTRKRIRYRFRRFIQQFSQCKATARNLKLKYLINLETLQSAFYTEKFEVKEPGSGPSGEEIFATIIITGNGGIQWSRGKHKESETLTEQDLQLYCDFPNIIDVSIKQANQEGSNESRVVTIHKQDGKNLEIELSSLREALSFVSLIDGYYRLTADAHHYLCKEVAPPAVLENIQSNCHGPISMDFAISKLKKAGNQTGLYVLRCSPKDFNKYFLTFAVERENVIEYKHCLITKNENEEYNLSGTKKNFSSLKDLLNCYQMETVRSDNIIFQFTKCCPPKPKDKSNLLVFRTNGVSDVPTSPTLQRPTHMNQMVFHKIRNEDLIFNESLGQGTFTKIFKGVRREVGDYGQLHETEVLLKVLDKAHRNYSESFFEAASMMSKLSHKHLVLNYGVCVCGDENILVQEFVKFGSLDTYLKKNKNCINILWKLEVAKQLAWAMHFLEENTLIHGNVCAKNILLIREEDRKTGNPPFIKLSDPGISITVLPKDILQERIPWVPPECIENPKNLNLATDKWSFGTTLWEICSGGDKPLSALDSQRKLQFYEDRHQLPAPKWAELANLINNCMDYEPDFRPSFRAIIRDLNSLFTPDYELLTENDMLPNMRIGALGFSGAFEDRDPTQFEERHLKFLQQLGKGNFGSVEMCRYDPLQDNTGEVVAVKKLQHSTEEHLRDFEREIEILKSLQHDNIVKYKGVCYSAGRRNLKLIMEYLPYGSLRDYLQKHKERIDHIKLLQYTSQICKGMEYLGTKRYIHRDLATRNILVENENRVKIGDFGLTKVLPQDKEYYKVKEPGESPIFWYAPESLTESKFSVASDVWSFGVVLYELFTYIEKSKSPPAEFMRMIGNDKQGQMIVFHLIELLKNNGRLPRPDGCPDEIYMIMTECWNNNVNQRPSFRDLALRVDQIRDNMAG
Sequence of Casein kinase II subunit alpha' (P19784 whole entry): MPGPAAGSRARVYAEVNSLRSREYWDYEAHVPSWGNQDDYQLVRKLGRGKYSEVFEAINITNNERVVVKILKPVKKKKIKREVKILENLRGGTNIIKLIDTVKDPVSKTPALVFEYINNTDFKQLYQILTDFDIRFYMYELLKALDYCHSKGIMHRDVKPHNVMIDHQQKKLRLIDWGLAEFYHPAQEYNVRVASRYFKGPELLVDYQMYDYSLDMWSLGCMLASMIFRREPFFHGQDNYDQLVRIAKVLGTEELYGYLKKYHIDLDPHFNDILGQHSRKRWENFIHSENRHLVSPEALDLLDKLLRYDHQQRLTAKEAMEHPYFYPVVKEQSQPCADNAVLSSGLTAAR
Sequence of Mitogen-activated protein kinase 14 (Q16539 whole entry): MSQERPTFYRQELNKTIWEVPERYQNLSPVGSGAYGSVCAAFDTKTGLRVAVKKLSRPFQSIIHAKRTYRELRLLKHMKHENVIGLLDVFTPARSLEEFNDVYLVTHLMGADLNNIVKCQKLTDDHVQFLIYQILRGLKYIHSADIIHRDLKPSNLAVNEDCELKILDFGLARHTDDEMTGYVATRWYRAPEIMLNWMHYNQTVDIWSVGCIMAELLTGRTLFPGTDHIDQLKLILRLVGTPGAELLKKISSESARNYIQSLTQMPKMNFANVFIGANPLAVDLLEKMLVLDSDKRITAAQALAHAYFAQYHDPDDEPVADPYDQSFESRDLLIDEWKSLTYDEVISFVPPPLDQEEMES
Sequence of Glycogen synthase kinase-3 alpha (P49840 whole entry): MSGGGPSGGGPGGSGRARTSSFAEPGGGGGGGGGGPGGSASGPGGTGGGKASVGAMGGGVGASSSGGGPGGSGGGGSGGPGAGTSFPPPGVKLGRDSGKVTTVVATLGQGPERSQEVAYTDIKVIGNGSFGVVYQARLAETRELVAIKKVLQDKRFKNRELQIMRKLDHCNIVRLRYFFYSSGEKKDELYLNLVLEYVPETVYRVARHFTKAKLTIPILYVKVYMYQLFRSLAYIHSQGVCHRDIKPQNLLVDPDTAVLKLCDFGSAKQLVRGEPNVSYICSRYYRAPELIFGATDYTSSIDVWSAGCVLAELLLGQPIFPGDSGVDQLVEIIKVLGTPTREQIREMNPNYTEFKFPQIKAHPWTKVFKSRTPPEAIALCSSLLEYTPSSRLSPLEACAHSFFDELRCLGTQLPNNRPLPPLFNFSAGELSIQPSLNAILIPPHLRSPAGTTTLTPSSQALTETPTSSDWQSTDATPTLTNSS

CC1CN(c2ccncc2NC(=O)c2ccnn3cc(-c4ccccc4)nc23)CCO1 (racemic)
pIC50 [1]: 6.70 | Papp at 4 h [2]: 80.6 ×10⁻⁶ cm/s | solubility [3]: 14 µg/mL (≈ 33.8 µM) | pIC50 [4]: < 5.70 | fraction unbound at 5 h, 10 µM [5]: 0.009 | solubility [6]: 788 µg/mL (≈ 1900 µM) | pIC50 [7]: < 5.70 | pIC50 [8]: < 5.70 | pIC50 [9]: 5.85 | pIC50 [10]: < 4.30 | pIC50 [11]: < 5.70 | Vd [12]: 1.1 L/kg | Kp uu at 5 h [13]: 0.34 | bioavailability [14]: 64% | pIC50 [15]: 9.46 | pIC50 [16]: < 5.70 | pIC50 [17]: < 5.70 | pIC50 [18]: < 5.70 | clearance [19]: 3.8 mL/min/kg | pIC50 [20]: < 5.70 | Activity [21]: 52% | AUC [22]: 68.3 µM·h | pIC50 [23]: < 5.70 | Cmax [24]: 7.8 µM | concentration at 5 h [25]: 1300 nM | solubility [26]: 1220 µg/mL (≈ 2940 µM) | pIC50 [27]: < 5.70 | concentration at 5 h [28]: 3.8 µM | Kp at 5 h [29]: 0.34 | pIC50 [30]: < 5.70 | Papp at 4 h [31]: 100 ×10⁻⁶ cm/s | pIC50 [32]: 9.14 | pIC50 [33]: < 4.30 | fraction unbound at 5 h [34]: 0.009 | pIC50 [35]: 5.19 | pIC50 [36]: < 4.30 | remaining at 10 min, 0.5 µM [37]: 7% | pIC50 [38]: < 5.70 | pIC50 [39]: < 4.30 | Papp B→A at 2 h, 3 µM [40]: 7.1 ×10⁻⁶ cm/s | pIC50 [41]: < 5.70 | pIC50 [42]: 6.44 | pIC50 [43]: < 5.70 | pIC50 [44]: 7.24 | pIC50 [45]: 6.42 | pIC50 [46]: < 4.30 | efflux ratio at 2 h, 3 µM [47]: < 1 | fraction unbound at 5 h, 10 µM [48]: 0.008 | pIC50 [49]: < 5.70 | half-life [50]: 312 min | MRT [51]: 4.8 h | remaining at 10 min, 0.5 µM [52]: 17% | Papp A→B at 2 h, 3 µM [53]: 13.8 ×10⁻⁶ cm/s | pIC50 [54]: < 5.70 | pIC50 [55]: < 4.30 | solubility [56]: 21 µg/mL (≈ 50.7 µM)
